Measurements from ChEMBL document CHEMBL4507286 (2021).

Assays:
[1] = target: Tyrosine-protein kinase ABL1 (Homo sapiens) (UniProt P00519)
[2] = target: Activin receptor type-2B (Homo sapiens) (UniProt Q13705)
[3] = target: Bone morphogenetic protein receptor type-2 (Homo sapiens) (UniProt Q13873)
[4] = target: Serine/threonine-protein kinase B-raf (Homo sapiens) (UniProt P15056)
[5] = target: Peripheral plasma membrane protein CASK (Homo sapiens) (UniProt O14936)
[6] = target: Cyclin-dependent kinase 13 (Homo sapiens) (UniProt Q14004)
[7] = target: Cyclin-dependent kinase 3 (Homo sapiens) (UniProt Q00526)
[8] = target: Casein kinase I isoform alpha (Homo sapiens) (UniProt P48729)
[9] = target: Death-associated protein kinase 2 (Homo sapiens) (UniProt Q9UIK4)
[10] = target: Serine/threonine-protein kinase DCLK3 (Homo sapiens) (UniProt Q9C098)
[11] = target: Serine/threonine-protein kinase MRCK gamma (Homo sapiens) (UniProt Q6DT37)
[12] = target: Serine/threonine-protein kinase 17B (Homo sapiens) (UniProt O94768)
[13] = target: Eukaryotic translation initiation factor 2-alpha kinase 1 (Homo sapiens) (UniProt Q9BQI3)
[14] = system: Receptor-type tyrosine-protein kinase FLT3 (Homo sapiens), P36888 [N841I]
[15] = target: Vascular endothelial growth factor receptor 3 (Homo sapiens) (UniProt P35916)
[16] = target: Rhodopsin kinase GRK1 (Homo sapiens) (UniProt Q15835)
[17] = system: Mast/stem cell growth factor receptor Kit (Homo sapiens), P10721 [V559D,T670I]
[18] = target: Mitogen-activated protein kinase kinase kinase 13 (Homo sapiens) (UniProt O43283)
[19] = target: MAP kinase-activated protein kinase 5 (Homo sapiens) (UniProt Q8IW41)
[20] = target: MAP kinase-interacting serine/threonine-protein kinase 1 (Homo sapiens) (UniProt Q9BUB5)
[21] = target: Mitogen-activated protein kinase kinase kinase 9 (Homo sapiens) (UniProt P80192)
[22] = target: Myosin-IIIa (Homo sapiens) (UniProt Q8NEV4)
[23] = target: Serine/threonine-protein kinase Nek6 (Homo sapiens) (UniProt Q9HC98)
[24] = target: Cyclin-dependent kinase 16 (Homo sapiens) (UniProt Q00536)
[25] = target: Cyclin-dependent kinase 14 (Homo sapiens) (UniProt O94921)
[26] = target: Phosphorylase b kinase gamma catalytic chain, skeletal muscle/heart isoform (Homo sapiens) (UniProt Q16816)
[27] = system: Phosphatidylinositol 4,5-bisphosphate 3-kinase catalytic subunit alpha isoform (Homo sapiens), P42336 [I800L]
[28] = target: Phosphatidylinositol 4,5-bisphosphate 3-kinase catalytic subunit beta isoform (Homo sapiens) (UniProt P42338)
[29] = target: Phosphatidylinositol 4-phosphate 5-kinase type-1 alpha (Homo sapiens) (UniProt Q99755)
[30] = target: Membrane-associated tyrosine- and threonine-specific cdc2-inhibitory kinase (Homo sapiens) (UniProt Q99640)
[31] = target: Serine/threonine-protein kinase D2 (Homo sapiens) (UniProt Q9BZL6)
[32] = target: Dual serine/threonine and tyrosine protein kinase (Homo sapiens) (UniProt Q6XUX3)
[33] = target: Ribosomal protein S6 kinase alpha-6 (Homo sapiens) (UniProt Q9UK32)
[34] = target: SRSF protein kinase 2 (Homo sapiens) (UniProt P78362)
[35] = target: STE20/SPS1-related proline-alanine-rich protein kinase (Homo sapiens) (UniProt Q9UEW8)
[36] = target: Serine/threonine-protein kinase WNK3 (Homo sapiens) (UniProt Q9BYP7)
[37] = target: Serine/threonine-protein kinase 32C (Homo sapiens) (UniProt Q86UX6)
[38] = target: Tyrosine-protein kinase ZAP-70 (Homo sapiens) (UniProt P43403)
[39] = target: 5-hydroxytryptamine receptor 5A (Homo sapiens) (UniProt P47898); details: Compound concentration 10.0 uM
[40] = target: D(4) dopamine receptor (Homo sapiens) (UniProt P21917); details: Compound concentration 10.0 uM
[41] = target: Sodium-dependent dopamine transporter (Homo sapiens) (UniProt Q01959); details: Compound concentration 10.0 uM
[42] = target: Mu-type opioid receptor (Homo sapiens) (UniProt P35372); details: Compound concentration 10.0 uM
[43] = target: Histamine H2 receptor (Homo sapiens) (UniProt P25021); details: Compound concentration 10.0 uM
[44] = target: Alpha-2C adrenergic receptor (Homo sapiens) (UniProt P18825); details: Compound concentration 10.0 uM
Rattus norvegicus = species: Rattus norvegicus; details: Compound concentration 10.0 uM
[45] = Compound concentration 1000.0 nM
[46] = Compound concentration 100.0 nM

Chain of Serine/threonine-protein kinase 32C (Homo sapiens) (Q86UX6 whole entry): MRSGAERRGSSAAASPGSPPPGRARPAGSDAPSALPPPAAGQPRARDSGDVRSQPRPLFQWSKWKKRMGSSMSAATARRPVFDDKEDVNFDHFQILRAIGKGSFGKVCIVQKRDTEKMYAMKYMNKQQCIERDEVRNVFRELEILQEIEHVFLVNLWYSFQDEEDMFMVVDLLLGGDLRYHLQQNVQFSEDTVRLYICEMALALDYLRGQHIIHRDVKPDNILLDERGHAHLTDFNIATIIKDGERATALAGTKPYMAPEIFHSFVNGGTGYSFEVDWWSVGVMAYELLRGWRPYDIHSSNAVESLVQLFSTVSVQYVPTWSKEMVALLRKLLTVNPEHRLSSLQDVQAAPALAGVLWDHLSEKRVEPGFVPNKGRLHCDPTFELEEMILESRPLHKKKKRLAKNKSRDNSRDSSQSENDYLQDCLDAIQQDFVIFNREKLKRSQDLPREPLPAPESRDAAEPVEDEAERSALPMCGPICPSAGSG
Chain of Cyclin-dependent kinase 14 (Homo sapiens) (O94921 whole entry, canonical isoform): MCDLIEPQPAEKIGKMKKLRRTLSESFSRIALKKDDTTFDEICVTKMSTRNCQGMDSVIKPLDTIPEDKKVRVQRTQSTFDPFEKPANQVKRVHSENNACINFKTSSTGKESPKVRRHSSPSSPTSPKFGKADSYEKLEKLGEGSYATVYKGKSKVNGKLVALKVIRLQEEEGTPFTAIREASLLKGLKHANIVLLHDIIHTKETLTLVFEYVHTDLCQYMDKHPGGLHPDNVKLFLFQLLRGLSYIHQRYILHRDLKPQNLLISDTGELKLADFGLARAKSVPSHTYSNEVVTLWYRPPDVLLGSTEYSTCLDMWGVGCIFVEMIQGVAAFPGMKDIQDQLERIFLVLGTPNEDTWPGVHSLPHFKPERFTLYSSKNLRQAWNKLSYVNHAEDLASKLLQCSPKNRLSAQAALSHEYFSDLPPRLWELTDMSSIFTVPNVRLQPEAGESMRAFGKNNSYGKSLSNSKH
Chain of Serine/threonine-protein kinase DCLK3 (Homo sapiens) (Q9C098 whole entry): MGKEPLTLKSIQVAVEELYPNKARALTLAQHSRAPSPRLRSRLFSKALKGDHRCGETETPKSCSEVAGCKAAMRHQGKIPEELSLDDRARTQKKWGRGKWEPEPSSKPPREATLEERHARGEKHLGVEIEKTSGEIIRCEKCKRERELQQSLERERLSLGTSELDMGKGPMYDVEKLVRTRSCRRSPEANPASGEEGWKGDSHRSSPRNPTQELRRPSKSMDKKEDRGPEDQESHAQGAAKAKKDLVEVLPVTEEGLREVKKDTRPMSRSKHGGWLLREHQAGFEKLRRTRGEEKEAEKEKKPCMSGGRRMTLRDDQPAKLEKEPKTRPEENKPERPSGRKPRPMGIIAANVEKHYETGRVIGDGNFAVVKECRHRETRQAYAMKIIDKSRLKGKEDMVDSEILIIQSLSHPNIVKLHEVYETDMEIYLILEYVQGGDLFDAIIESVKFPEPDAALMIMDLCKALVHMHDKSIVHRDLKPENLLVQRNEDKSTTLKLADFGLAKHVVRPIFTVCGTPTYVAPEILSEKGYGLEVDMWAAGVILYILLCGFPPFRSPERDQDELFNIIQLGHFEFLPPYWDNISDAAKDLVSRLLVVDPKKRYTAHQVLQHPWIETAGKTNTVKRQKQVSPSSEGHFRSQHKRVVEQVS
Chain of Serine/threonine-protein kinase D2 (Homo sapiens) (Q9BZL6 whole entry): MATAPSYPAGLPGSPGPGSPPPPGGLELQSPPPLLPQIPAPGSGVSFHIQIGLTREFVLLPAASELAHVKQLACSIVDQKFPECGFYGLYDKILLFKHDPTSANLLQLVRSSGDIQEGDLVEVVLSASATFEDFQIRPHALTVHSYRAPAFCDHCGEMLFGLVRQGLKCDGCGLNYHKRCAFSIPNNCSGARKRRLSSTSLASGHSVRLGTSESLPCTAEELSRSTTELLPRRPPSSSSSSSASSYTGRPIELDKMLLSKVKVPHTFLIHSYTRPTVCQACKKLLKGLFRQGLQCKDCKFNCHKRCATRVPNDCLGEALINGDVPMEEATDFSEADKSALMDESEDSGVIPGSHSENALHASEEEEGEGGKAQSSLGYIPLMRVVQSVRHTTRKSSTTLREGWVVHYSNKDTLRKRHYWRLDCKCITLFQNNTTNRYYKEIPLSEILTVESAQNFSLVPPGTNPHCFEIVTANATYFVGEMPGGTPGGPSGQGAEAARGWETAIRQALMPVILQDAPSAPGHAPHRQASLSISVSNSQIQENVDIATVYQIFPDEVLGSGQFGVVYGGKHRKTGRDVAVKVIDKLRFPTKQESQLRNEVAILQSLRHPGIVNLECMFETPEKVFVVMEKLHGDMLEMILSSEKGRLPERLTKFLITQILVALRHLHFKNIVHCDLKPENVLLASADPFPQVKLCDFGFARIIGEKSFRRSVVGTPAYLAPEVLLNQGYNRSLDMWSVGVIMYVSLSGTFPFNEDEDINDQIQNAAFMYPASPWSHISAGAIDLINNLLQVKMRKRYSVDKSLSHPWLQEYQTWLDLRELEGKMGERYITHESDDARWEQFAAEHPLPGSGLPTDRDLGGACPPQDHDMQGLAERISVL
Chain of Vascular endothelial growth factor receptor 3 (Homo sapiens) (P35916 whole entry): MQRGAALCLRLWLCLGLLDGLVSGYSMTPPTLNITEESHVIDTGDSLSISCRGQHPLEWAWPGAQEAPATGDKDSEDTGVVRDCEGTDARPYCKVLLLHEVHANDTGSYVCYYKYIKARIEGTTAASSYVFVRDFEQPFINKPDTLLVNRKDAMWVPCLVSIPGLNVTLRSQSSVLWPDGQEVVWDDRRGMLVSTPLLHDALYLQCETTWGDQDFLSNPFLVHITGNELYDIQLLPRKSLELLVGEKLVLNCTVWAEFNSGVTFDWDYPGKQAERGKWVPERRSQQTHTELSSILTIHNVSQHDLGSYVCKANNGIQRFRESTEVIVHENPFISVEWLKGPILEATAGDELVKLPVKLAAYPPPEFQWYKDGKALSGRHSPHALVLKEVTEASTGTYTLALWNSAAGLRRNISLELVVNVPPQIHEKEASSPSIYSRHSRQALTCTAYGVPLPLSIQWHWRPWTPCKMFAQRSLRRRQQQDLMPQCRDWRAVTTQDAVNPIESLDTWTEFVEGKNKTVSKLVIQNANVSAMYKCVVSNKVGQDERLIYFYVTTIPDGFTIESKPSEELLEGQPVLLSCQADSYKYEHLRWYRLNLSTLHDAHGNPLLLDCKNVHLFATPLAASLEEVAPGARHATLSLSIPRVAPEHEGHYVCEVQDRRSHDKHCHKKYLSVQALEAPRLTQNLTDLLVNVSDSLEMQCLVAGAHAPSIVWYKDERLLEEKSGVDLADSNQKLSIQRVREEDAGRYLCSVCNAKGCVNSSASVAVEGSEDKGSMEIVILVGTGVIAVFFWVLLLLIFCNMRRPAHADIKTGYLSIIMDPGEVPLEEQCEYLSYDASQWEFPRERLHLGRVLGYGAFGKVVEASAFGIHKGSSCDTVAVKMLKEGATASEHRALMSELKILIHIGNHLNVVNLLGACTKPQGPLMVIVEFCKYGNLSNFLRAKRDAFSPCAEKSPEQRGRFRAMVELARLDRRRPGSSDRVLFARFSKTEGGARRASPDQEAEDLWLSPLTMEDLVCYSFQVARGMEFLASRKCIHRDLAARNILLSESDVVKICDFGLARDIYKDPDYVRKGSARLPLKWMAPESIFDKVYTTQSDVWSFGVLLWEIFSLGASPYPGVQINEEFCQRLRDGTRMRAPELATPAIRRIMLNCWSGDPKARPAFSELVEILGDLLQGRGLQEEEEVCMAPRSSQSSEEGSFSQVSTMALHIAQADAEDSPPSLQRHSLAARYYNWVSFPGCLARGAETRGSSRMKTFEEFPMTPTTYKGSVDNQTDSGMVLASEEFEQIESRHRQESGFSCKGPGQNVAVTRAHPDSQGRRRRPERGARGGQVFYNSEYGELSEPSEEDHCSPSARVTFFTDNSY
Chain of Mast/stem cell growth factor receptor Kit (Homo sapiens), P10721 [V559D,T670I] (P10721 whole entry V559D/T670I): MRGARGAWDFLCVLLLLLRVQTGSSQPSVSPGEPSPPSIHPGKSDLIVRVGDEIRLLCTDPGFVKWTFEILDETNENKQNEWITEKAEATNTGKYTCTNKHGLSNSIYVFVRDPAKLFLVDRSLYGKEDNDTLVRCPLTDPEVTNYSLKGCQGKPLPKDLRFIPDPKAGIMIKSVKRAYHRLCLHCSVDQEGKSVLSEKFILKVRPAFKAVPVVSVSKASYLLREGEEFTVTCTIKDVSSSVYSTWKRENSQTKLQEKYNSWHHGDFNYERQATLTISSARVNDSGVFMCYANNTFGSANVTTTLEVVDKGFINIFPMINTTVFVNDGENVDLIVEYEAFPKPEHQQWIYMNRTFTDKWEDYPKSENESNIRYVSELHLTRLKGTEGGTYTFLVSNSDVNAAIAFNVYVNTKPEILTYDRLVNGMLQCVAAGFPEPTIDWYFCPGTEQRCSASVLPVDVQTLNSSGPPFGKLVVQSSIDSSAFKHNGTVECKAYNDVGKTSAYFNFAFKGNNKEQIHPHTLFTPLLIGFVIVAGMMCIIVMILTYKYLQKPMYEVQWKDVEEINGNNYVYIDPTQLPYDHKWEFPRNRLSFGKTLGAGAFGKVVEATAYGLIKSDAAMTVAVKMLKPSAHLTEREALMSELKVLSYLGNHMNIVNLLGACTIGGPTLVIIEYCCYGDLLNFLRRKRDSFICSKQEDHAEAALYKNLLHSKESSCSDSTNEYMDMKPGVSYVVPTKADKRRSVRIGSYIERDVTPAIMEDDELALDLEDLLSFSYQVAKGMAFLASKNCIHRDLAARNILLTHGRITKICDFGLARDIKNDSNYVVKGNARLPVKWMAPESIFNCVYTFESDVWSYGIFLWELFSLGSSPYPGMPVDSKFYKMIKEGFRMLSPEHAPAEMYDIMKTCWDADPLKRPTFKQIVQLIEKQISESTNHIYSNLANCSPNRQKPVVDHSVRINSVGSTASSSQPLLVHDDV

C[C@H](NC(=O)Nc1cc2[nH]ncc2c(CO)n1)c1ccccn1 [ERKi-NC]
residual activity [1, 45]: 72.8%
residual activity [2, 45]: 86.2%
residual activity [3, 45]: 100%
residual activity [4, 45]: 100%
residual activity [5, 45]: 60.8%
residual activity [6, 45]: 79%
residual activity [7, 45]: 100%
residual activity [8, 45]: 56.5%
residual activity [9, 45]: 100%
residual activity [10, 45]: 84.5%
residual activity [11, 45]: 100%
residual activity [12, 45]: 100%
residual activity [13, 45]: 100%
residual activity [14, 45]: 100%
residual activity [15, 45]: 100%
residual activity [16, 45]: 59.5%
residual activity [17, 45]: 85.5%
residual activity [18, 45]: 100%
residual activity [19, 45]: 100%
residual activity [20, 45]: 100%
residual activity [21, 45]: 100%
residual activity [22, 45]: 100%
residual activity [23, 45]: 100%
residual activity [24, 45]: 100%
residual activity [25, 45]: 100%
residual activity [26, 45]: 96.3%
residual activity [27, 45]: 99.5%
residual activity [28, 45]: 100%
residual activity [29, 45]: 100%
residual activity [30, 45]: 100%
residual activity [31, 45]: 100%
residual activity [32, 45]: 100%
residual activity [33, 45]: 100%
residual activity [34, 45]: 100%
residual activity [35, 45]: 80.9%
residual activity [36, 45]: 100%
residual activity [37, 45]: 74%
residual activity [38, 45]: 77.9%
inhibition [39]: 9.46%
inhibition [40]: 16.6%
inhibition [41]: 4.79%
inhibition [42]: -6.59%
inhibition [43]: 3.05%
inhibition [44]: 11.5%
inhibition (Rattus norvegicus): -1.65%

C[C@@H](NC(=O)Nc1cc2[nH]ncc2c(CO)n1)c1ccccc1 [ERKi]
residual activity [1, 46]: 87%
residual activity [2, 46]: 87.6%
residual activity [3, 46]: 70.3%
residual activity [4, 46]: 86.9%
residual activity [5, 46]: 89.7%
residual activity [6, 46]: 45.7%
residual activity [7, 46]: 86.1%
residual activity [8, 46]: 84.6%
residual activity [9, 46]: 66.3%
residual activity [10, 46]: 97.1%
residual activity [11, 46]: 98.2%
residual activity [12, 46]: 95.8%
residual activity [13, 46]: 92.8%
residual activity [14, 46]: 88.2%
residual activity [15, 46]: 100%
residual activity [16, 46]: 78.3%
residual activity [17, 46]: 83.7%
residual activity [18, 46]: 100%
residual activity [19, 46]: 80%
residual activity [20, 46]: 89.6%
residual activity [21, 46]: 95.7%
residual activity [22, 46]: 100%
residual activity [23, 46]: 98.9%
residual activity [24, 46]: 82.2%
residual activity [25, 46]: 100%
residual activity [26, 46]: 84.1%
residual activity [27, 46]: 66%
residual activity [28, 46]: 81.5%
residual activity [29, 46]: 84.5%
residual activity [30, 46]: 99.6%
residual activity [31, 46]: 97.5%
residual activity [32, 46]: 91.6%
residual activity [33, 46]: 83.4%
residual activity [34, 46]: 61.2%
residual activity [35, 46]: 100%
residual activity [36, 46]: 47.3%
residual activity [37, 46]: 100%
residual activity [38, 46]: 95.8%
inhibition [39]: 1.39%
inhibition [40]: -1%
inhibition [41]: 46.5%
inhibition [42]: 6.82%
inhibition [43]: 11.8%
inhibition [44]: -8.07%
inhibition (Rattus norvegicus): 8.66%
